Data on 16 compounds can be found in patent US20090069319A1, “IMIDAZOPYRIDINE ANALOGS AND THEIR USE AS AGONISTS OF THE WNT-BETA-CATENIN CELLULAR MESSAGING SYSTEM” (Wyeth, priority 2007, published 2009).

This experiment can be described thus: Functional Dkk1-LRP5-TCF-Luciferase Assay in U2OS Cells (table columns: A=MAX FOLD Induction/DMSO CONTROL; B=fold induction @ 2.0 uM; C=fold induction @ 20.0 uM). Type of experiment: cell-based, Human. As to conditions: Homo sapiens, U2OS; for fold induction at 2 µM: 2.0 uM compound; for fold induction at 20 µM: 20.0 uM compound. The protocol:
Biological Evaluation—Functional Dkk1-LRP5-TCF-Luciferase Assay in U2OS Cells
U2OS Human Bone derived cells (Osteosarcoma) are grown in McCoy's 5A Medium (Modified), with L-glutamine (GIBCO Cat No. 16600-082)+1% Pen-Strep+5% FBS) plated at 1×10^7 cells/T175 cm flask. The next day, the cells are co-transfected overnight with the following plasmids: (a) Test reporter (16×TCF-TK-FireFly-Luci), (b) Internal Control Reporter (TK-Renilla-Luci), (c) Wnt3a and (d) Dkk1. GIBCO's Lipofectamine 2000 and OptiMEM were used for the transfection. After a minimum of 4 hr of transfection at 37° C., the plasmid-transfected cells are trypsinized, counted, and suspended in freezing medium (95% FBS+5% DMSO). The reporter cells are frozen at 1×10^7/ml concentrations, aliquoted into 0.5 ml or 2.5 ml/tube and stored at −70° C.
The following day, test compounds are added under HTS setup by Plate Track into 384 well plates (white, TC treated, Falcon plate) such that the final concentration of the compounds in 20 μL/well cell will be 5 μg/ml (final concentration of DMSO=0.25% and final compound concentration=20 μM). Vials of frozen reporter cells are thawed by warming the vial in a 37° C. water bath for 60-120 seconds with some shaking until the cells formed a suspension. The thawed cells are transferred into a cold 50 ml (or larger) tube and mixed well by gentle pipetting. The appropriate amount of cold Phenol Red Free RPMI medium-1640 (GIBCO, Cat # 11835-030) with L-glutamine is added, both with ˜5% FBS (GIBCO-BRL, Cat. # 16000-044), so that 20 μl of the final cell suspension will contain ˜5,000 cells. The cell dilution is done such that the final concentration of FBS was ˜5%. Diluted cells (20 μl) are added into each well in a 384 well plate. The plate is incubated at 37° C. under 5% CO2 for ˜20 h. Bright-Glo substrate, 2.5 μl/well is added, and the Fire Fly Luciferase is measured using VLUX (60 second exposure) immediately after the substrate was added. Test compounds are dissolved in DMSO (100%) and added to specified wells. Raw luciferase signal data obtained as relative luminescence units (RLUs) for the test compounds are normalized to the signal of the mean of the sample reporter cell plate with DMSO.
Active compounds have TCF-luciferase ratios of 2.5 fold or greater over DMSO. All compounds show a signal increase of at least 10% compared to a signal with only DMSO added.
A=MAX FOLD Induction/DMSO CONTROL
B=TCF ACTIVITY/DMSO CONTROL Fold induction @ 2.0 uM C=TCF ACTIVITY/DMSO CONTROL Fold induction @ 20.0 uM

For the compound `FC(F)(F)c1cccc(-c2nc3c(-c4ccc5ccccc5c4)ccnc3n2C2CCNCC2)c1Cl` [2-[2-chloro-3-(trifluoromethyl)phenyl]-7-(2-naphthyl)-3-piperidin-4-yl-3H-imidazo[4,5-b]pyridine], the fold induction at 2 µM was 1.21. For the compound `COc1ccc2[nH]cc(-c3nc4c(-c5ccc6ccccc6c5)ccnc4n3C3CCNCC3)c2c1` [2-(5-methoxy-1H-indol-3-yl)-7-(2-naphthyl)-3-piperidin-4-yl-3H-imidazo[4,5-b]pyridine], the fold induction at 2 µM was determined as 1.2. On the same count and under the same terms, under `FC(F)(F)Oc1ccccc1-c1nc2c(-c3ccc4ccccc4c3)ccnc2n1C1CCNCC1` [7-(2-naphthyl)-3-piperidin-4-yl-2-[2-(trifluoromethoxy)phenyl]-3H-imidazo[4,5-b]pyridine] stands 1.88. For the compound `c1ccc(-c2nc3c(-c4ccc5ccccc5c4)ccnc3n2C2CCNCC2)cc1` [7-(2-naphthyl)-2-phenyl-3-piperidin-4-yl-3H-imidazo[4,5-b]pyridine], the fold induction at 2 µM came out at 1.23 and the fold induction at 20 µM came to 0.05.

With `Cc1ccc(-c2nc3c(-c4ccc5ccccc5c4)ccnc3n2C2CCNCC2)c(C)c1` [2-(2,4-dimethylphenyl)-7-(2-naphthyl)-3-piperidin-4-yl-3H-imidazo[4,5-b]pyridine], the fold induction at 2 µM was 1.3. The same measure, in the same setting: under `Cc1cccc(-c2nc3c(-c4ccc5ccccc5c4)ccnc3n2C2CCNCC2)c1` [2-(3-methylphenyl)-7-(2-naphthyl)-3-piperidin-4-yl-3H-imidazo[4,5-b]pyridine] stands 1.91. Take `c1ccc2cc(-c3ccnc4c3ncn4C3CNC3)ccc2c1` [3-azetidin-3-yl-7-(2-naphthyl)-3H-imidazo[4,5-b]pyridine]: the fold induction at 2 µM is 1.49 and the fold induction at 20 µM was 1.25. The like results for `Cc1nc2cc(-c3ccc4ccccc4c3)cnc2n1C1CCNCC1` [2-methyl-6-(2-naphthyl)-3-piperidin-4-yl-3H-imidazo[4,5-b]pyridine] were, in that order, 1.06 and 1.17. For `c1ccc(N(c2ccccc2)c2ccc(-c3nc4c(-c5ccc6ccccc6c5)ccnc4n3C3CCNCC3)cc2)cc1` [4-[7-(2-naphthyl)-3-piperidin-4-yl-3H-imidazo[4,5-b]pyridin-2-yl]-N,N-diphenylaniline], the fold induction at 2 µM is 1.89. For `COC(=O)N1CCC(n2cnc3c(-c4ccc5ccccc5c4)ccnc32)CC1` [methyl 4-[7-(2-naphthyl)-3H-imidazo[4,5-b]pyridin-3-yl]piperidine-1-carboxylate], the fold induction at 2 µM came to 1.08 and the fold induction at 20 µM was 1.02. For the compound `c1ccc2cc(-c3ccnc4c3nc(-c3cnc5ccccc5c3)n4C3CCNCC3)ccc2c1` [3-[7-(2-naphthyl)-3-piperidin-4-yl-3H-imidazo[4,5-b]pyridin-2-yl]quinoline], the fold induction at 2 µM was 1.44.

On to `Cc1ccc(-c2nc3cc(-c4ccc5ccccc5c4)cnc3n2C2CCNCC2)o1` [2-(5-methyl-2-furyl)-6-(2-naphthyl)-3-piperidin-4-yl-3H-imidazo[4,5-b]pyridine], for which the fold induction at 2 µM was found to be 1.23. Turning to `Oc1cccc(-c2nc3c(-c4ccc5ccccc5c4)ccnc3n2C2CCNCC2)c1` [3-[7-(2-naphthyl)-3-piperidin-4-yl-3H-imidazo[4,5-b]pyridin-2-yl]phenol], the fold induction at 2 µM stood at 1.58. With `Cc1nc2c(-c3ccc4ccccc4c3)ccnc2n1CC1CCNCC1` [2-methyl-7-(2-naphthyl)-3-(piperidin-4-ylmethyl)-3H-imidazo[4,5-b]pyridine], the fold induction at 2 µM worked out at 1.12 and the fold induction at 20 µM amounted to 0.08. With `COc1cccc(-c2nc3cc(-c4ccc5ccccc5c4)cnc3n2C2CCNCC2)c1` [2-(3-methoxyphenyl)-6-(2-naphthyl)-3-piperidin-4-yl-3H-imidazo[4,5-b]pyridine], the fold induction at 2 µM was 0.97. With `c1ccc2cc(-c3cnc4c(c3)nc(-c3c[nH]c5ccccc35)n4C3CCNCC3)ccc2c1` [2-(1H-indol-3-yl)-6-(2-naphthyl)-3-piperidin-4-yl-3H-imidazo[4,5-b]pyridine], the fold induction at 2 µM stood at 1.11.

Usually fold induction stands for the signal under treatment as a multiple of the control signal.
